In the Deep4Chem optical property database:

Assay: solvent given as SMILES

In the case of `COc1ccc2cc(-c3ccc(C)cc3)c(=O)oc2c1`, the emission maximum (in C1CCOC1) was 424 nm, the emission maximum (in CCCCCC) was 414 nm and the emission maximum (in CCO) was 429 nm. For the same molecule, the emission maximum (in CS(C)=O) was 431 nm.
Work on `C(=C\c1nc(/C=C/c2ccc(N(c3ccccc3)c3ccccc3)cc2)cc(/C=C/c2ccc(N(c3ccccc3)c3ccccc3)cc2)n1)/c1ccccc1` yielded an emission maximum (in C1CCOC1) of 520 nm, an emission maximum (in CC#N) of 591 nm and an emission maximum (in CC(C)=O) of 563 nm. It also gave an emission maximum (in CCCCCCC) of 464 nm, an emission maximum (in CS(C)=O) of 596 nm and an emission maximum (in Cc1ccccc1) of 482 nm. For the same molecule, the emission maximum (in ClCCl) was 551 nm.
In the case of `CCc1ccc2ccc(-c3ccccc3)nn12`, the emission maximum (in CCCCCC) was 495 nm.
With `F[B-]1(F)OC(c2ccc(Br)cc2)=Cc2c3ccccc3c3ccccc3[n+]21` the emission maximum (in ClC(Cl)Cl) was 449 nm.
For `Cc1ccc(N2C(c3ccccc3[N-]S(=O)(=O)c3ccc(C)cc3)=[NH+]C(c3ccccc3)C2c2ccccc2)cc1` (configuration not stated), the emission maximum (in Cc1ccccc1) was 499 nm.
Work on `CCCCC1(CCCC)c2cc(C#Cc3ccc4ccc5cccc6ccc3c4c56)ccc2-c2ccc(C#Cc3ccc4ccc5cccc6ccc3c4c56)cc21` yielded an emission maximum (in C1CCCCC1) of 433 nm, an emission maximum (in C1CCOC1) of 437 nm and an emission maximum (in CC#N) of 433 nm. For the same molecule, the emission maximum (in CCOC(C)=O) was 433 nm, the emission maximum (in CN(C)C=O) was 441 nm and the emission maximum (in Cc1ccccc1) was 438 nm. The emission maximum (in ClC(Cl)Cl) was 439 nm and the emission maximum (in ClCCl) was 439 nm.
`CCOC(=O)c1ccccc1-c1c2ccc(=O)cc-2oc2cc(OC(=O)[C@H](CSCc3ccc(C)cc3)NC(=O)OC(C)(C)C)ccc12` gave an emission maximum (in C1CCOC1) of 518 nm, an emission maximum (in CC#N) of 521 nm and an emission maximum (in CCO) of 516 nm. For the same molecule, the emission maximum (in CS(C)=O) was 549 nm.
Molecule `CC1(C)Cc2c(c3ccccc3c3nc4ccccc4nc23)O1` has an emission maximum (in C1CCCCC1) of 475.96 nm, an emission maximum (in C1CCOC1) of 505.05 nm and an emission maximum (in CN(C)C=O) of 521.92 nm. For the same molecule, the emission maximum (in CO) was 529.1 nm, the emission maximum (in ClC(Cl)Cl) was 505.05 nm and the emission maximum (in c1ccccc1) was 483.09 nm.
`F[B-]1(F)OC(c2ccccc2)=Cc2ccc3ccccc3[n+]21` gave an emission maximum (in ClC(Cl)Cl) of 438 nm and an emission maximum (in ClCCl) of 441 nm.
`CCn1c2ccc(S(=O)(=O)O)cc2c(=O)c2cc3c(cc21)c(=O)c1cc(S(=O)(=O)O)ccc1n3CCCCCC(=O)O` showed an emission maximum (in O) of 559 nm.
With `Cc1cc(C)c(N(c2ccccc2)c2ccc(S(=O)(=O)c3ccc(S(=O)(=O)c4ccc(N(c5ccccc5)c5c(C)cc(C)cc5C)cc4)cc3)cc2)c(C)c1` the emission maximum (in Cc1ccccc1) was 450 nm and the emission maximum (in c1cc(-n2c3ccccc3c3ccccc32)nc(-n2c3ccccc3c3ccccc32)c1) was 452.12 nm.
Molecule `CC(C)(C)c1ccc(-c2nc3c4ccccc4c4ccccc4c3n2-c2ccc(C(C)(C)C)cc2)cc1` has an emission maximum (in C1CCOC1) of 390 nm, an emission maximum (in C1COCCO1) of 389 nm and an emission maximum (in CC#N) of 389 nm. For the same molecule, the emission maximum (in CCCCCC) was 385 nm, the emission maximum (in CCCCOCCCC) was 389 nm and the emission maximum (in CCN(CC)CC) was 388 nm. The emission maximum (in CCOC(C)=O) was 390 nm, the emission maximum (in CCOCC) was 388 nm and the emission maximum (in CN(C)C=O) was 391 nm. For the same molecule, the emission maximum (in Cc1ccccc1) was 390 nm, the emission maximum (in ClC=C(Cl)Cl) was 392 nm and the emission maximum (in ClCCl) was 392 nm.
For `COc1ccc(-c2ccc(-c3c4c(nc5ccccc35)-c3cc5c(cc3CC4)-c3nc4ccccc4c(-c4ccc(-c6ccc(OC)cc6)cc4)c3CC5)cc2)cc1`, the emission maximum (in ClC(Cl)Cl) was 388 nm.
With `c1ccc(-c2nc(-c3ccc(N4c5ccccc5Sc5ccccc54)cc3)nn2-c2ccc(N3c4ccccc4Sc4ccccc43)cc2)nc1` the emission maximum (in ClCCl) was 490 nm.
With `CN(C)c1ccc(-c2ccc(-c3cc(N4CCCCC4)c(C#N)c4c3-c3ccccc3CC4)s2)cc1` the emission maximum (in C1CCCCC1) was 491 nm, the emission maximum (in C1CCOC1) was 537 nm and the emission maximum (in CN(C)C=O) was 590 nm. The emission maximum (in CS(C)=O) was 570 nm, the emission maximum (in Cc1ccccc1) was 515 nm and the emission maximum (in ClC(Cl)Cl) was 540 nm.
In the case of `CN(C)c1ccc(C#Cc2ccccc2)cc1`, the emission maximum (in C1CCCCC1) was 344.99 nm, the emission maximum (in C1CCOC1) was 386 nm and the emission maximum (in C1COCCO1) was 372.49 nm. It also gave an emission maximum (in CC1CCCO1) of 377.5 nm, an emission maximum (in CC#N) of 415.51 nm and an emission maximum (in CC(C)=O) of 410.49 nm. It also gave an emission maximum (in CC(C)CC(C)(C)C) of 342.99 nm, an emission maximum (in CC(C)O) of 365 nm and an emission maximum (in CCCCCCCCCCCCCCCC) of 346.98 nm. For the same molecule, the emission maximum (in CCCCCCCCCCCCCCCCCl) was 360.49 nm, the emission maximum (in CCOC(C)=O) was 382.5 nm and the emission maximum (in CCOCC) was 368.5 nm. For the same molecule, the emission maximum (in CN(C)C=O) was 418.5 nm, the emission maximum (in CO) was 372 nm and the emission maximum (in CS(C)=O) was 423.5 nm. For the same molecule, the emission maximum (in Cc1ccccc1) was 366.01 nm.
For `CCCCC#Cc1cccc2cc(CCCC)c3cc(-c4cc[b-]5c(c4)c(CCCC)cc4cccc(C#CCCCC)[n+]54)cc[b-]3[n+]12`, the emission maximum (in C1CCCCC1) was 598 nm.
`COc1ccc(-c2cnc(/C=C/c3ccc(OC)c(OC)c3)o2)cc1` gave an emission maximum (in ClCCl) of 435 nm.
Molecule `C[Si](C)(C)C#Cc1c2c(=O)c3ccccc3c2c(C#C[Si](C)(C)C)c2c(=O)c3ccccc3c12` has an emission maximum (in ClC(Cl)Cl) of 571 nm.
Molecule `c1cc(-c2c3ccccc3c(-c3ccc4ccccc4c3)c3ccccc23)cc(-n2c3ccccc3c3ccccc32)c1` has an emission maximum (in ClCCl) of 419 nm.
Work on `C[C@]12SC(=O)C=C1c1nc(-c3ccc(Cl)cc3)[nH]c1C1=CC(=O)S[C@@]12C` yielded an emission maximum (in CC#N) of 509 nm.
Molecule `N#Cc1cc(C#Cc2c(F)c(F)nc(F)c2F)c(C#Cc2c(F)c(F)nc(F)c2F)cc1C#N` has an emission maximum (in CC#N) of 370 nm.
`Cc1ccc(C2=C3C=CC(Sc4ccccc4)=[N+]3[B-](F)(F)n3c(Sc4ccccc4)ccc32)cc1` gave an emission maximum (in C1CCOC1) of 599 nm.
In the case of `CC(C)[Si](C#Cc1c2nc3ccccc3nc2c(C#C[Si](C(C)C)(C(C)C)C(C)C)c2nc3c(ccc4cc5ccccc5cc43)nc12)(C(C)C)C(C)C`, the emission maximum (in CCCCCC) was 648 nm.
For `O=C(O)c1ccc(-c2ccc(-c3nc(-c4ccccc4)c4ccccn34)cc2)s1`, the emission maximum (in CC#N) was 485 nm.
In the case of `COc1ccc(C#Cc2nc3ccccc3nc2-c2cn(C)c3ccccc23)cc1`, the emission maximum (in C1CCOC1) was 490 nm, the emission maximum (in CC#N) was 518 nm and the emission maximum (in CC(C)=O) was 513 nm. For the same molecule, the emission maximum (in CC(C)O) was 519 nm, the emission maximum (in CCO) was 522 nm and the emission maximum (in CCOC(C)=O) was 491 nm. The emission maximum (in CO) was 525 nm, the emission maximum (in Cc1ccccc1) was 468 nm and the emission maximum (in ClCCl) was 506 nm.
In the case of `COc1cnc(-c2cc[n+](C3=C(F)C(F)(F)C(F)(F)[C-]3F)cc2)s1`, the emission maximum (in CC#N) was 474 nm, the emission maximum (in CC(C)=O) was 474 nm and the emission maximum (in CCO) was 474 nm. For the same molecule, the emission maximum (in CN(C)C=O) was 485 nm, the emission maximum (in CO) was 472 nm and the emission maximum (in CS(C)=O) was 490 nm. The emission maximum (in ClC(Cl)Cl) was 462 nm and the emission maximum (in ClCCl) was 466 nm.
`C(=C\c1c2ccccc2cc2ccccc12)/c1cnc2ccccc2c1` gave an emission maximum (in CC1CCCCC1) of 488 nm and an emission maximum (in CC#N) of 494 nm.
`c1ccc2c(c1)ccc1c3ccccc3ccc21` gave an emission maximum (in ClCCl) of 366 nm.
With `CN1C(=O)/C(=C/c2ccncc2)N=C1c1ccccc1` the emission maximum (in C1COCCO1) was 471 nm, the emission maximum (in CC#N) was 475 nm and the emission maximum (in CCO) was 477 nm. The emission maximum (in CCOC(C)=O) was 472 nm and the emission maximum (in O) was 477 nm.
Work on `CC1(C)CC(=O)c2c(F)c(F)cc(F)c2N1` yielded an emission maximum (in CC#N) of 459 nm and an emission maximum (in CCO) of 499 nm.
In the case of `OB(O)c1ccc(-c2ccc(N(c3ccccc3)c3ccccc3)cc2)cc1`, the emission maximum (in C1CCCCC1) was 384 nm, the emission maximum (in C1CCOC1) was 410 nm and the emission maximum (in CCO) was 422.4 nm. The emission maximum (in CCOCC) was 398 nm and the emission maximum (in CO) was 432 nm.
Work on `c1cc2c3c(c1)OCCCCCCOc1cccc(c1-c1c4ccccc4c-3c3ccccc13)OCCCCCCO2` yielded an emission maximum (in C1CCCCC1) of 429 nm.
For `CC1=CC(C)=[N+]2C1=C(c1ccc(I)cc1)c1c(C)cc(C)n1[B-]21Oc2ccc3ccccc3c2-c2c(ccc3ccccc23)O1`, the emission maximum (in ClC(Cl)Cl) was 516.4 nm.
`CC(C)(C)c1ccc2oc(-c3ccc(-c4nc5cc(C(C)(C)C)ccc5o4)s3)nc2c1` showed an emission maximum (in C1CCCCC1) of 426 nm, an emission maximum (in C1CCOC1) of 432 nm and an emission maximum (in CC1CCCCC1) of 426 nm. It also gave an emission maximum (in CC#N) of 432 nm, an emission maximum (in CCCCO) of 434 nm and an emission maximum (in CCO) of 434 nm. The emission maximum (in CN(C)C=O) was 434 nm, the emission maximum (in Cc1ccccc1) was 434 nm and the emission maximum (in Clc1ccccc1Cl) was 437 nm. It also gave an emission maximum (in c1ccccc1) of 434 nm.
`C=Cc1ccc(OC)cc1` showed an emission maximum (in C1CCCCC1) of 322 nm and an emission maximum (in CC#N) of 323 nm.
`Cc1c(-c2nc(-c3ccccc3)nc(-c3ccccc3)n2)ccc(-n2c3ccccc3c3cc4c(cc32)C2c3ccccc3C4c3ccccc32)c1C` gave an emission maximum (in Cc1ccccc1) of 427 nm and an emission maximum (in O=P(c1ccccc1)(c1ccccc1)c1ccccc1Oc1ccccc1P(=O)(c1ccccc1)c1ccccc1) of 435 nm.
`O=C(c1ccc(C(=C(c2ccc(C(=O)c3ccc(-n4c5ccccc5c5ccccc54)cc3)cc2)c2ccc(C(=O)c3ccc(-n4c5ccccc5c5ccccc54)cc3)cc2)c2ccccc2)cc1)c1ccc(-n2c3ccccc3c3ccccc32)cc1` showed an emission maximum (in C1CCOC1) of 503 nm.
`O=c1oc2ccccc2cc1-c1nc2ccccc2o1` showed an emission maximum (in C1CCOC1) of 444 nm, an emission maximum (in C1COCCO1) of 443 nm and an emission maximum (in CC1CCCCC1) of 438 nm. For the same molecule, the emission maximum (in CC#N) was 443 nm, the emission maximum (in CC(C)=O) was 444 nm and the emission maximum (in CC(C)CO) was 445 nm. For the same molecule, the emission maximum (in CC(C)O) was 444 nm, the emission maximum (in CCOC(C)=O) was 443 nm and the emission maximum (in CN(C)C=O) was 445 nm. For the same molecule, the emission maximum (in CO) was 440 nm, the emission maximum (in CS(C)=O) was 453 nm and the emission maximum (in Cc1ccccc1) was 445 nm. It also gave an emission maximum (in ClC(Cl)(Cl)Cl) of 444 nm, an emission maximum (in ClC(Cl)Cl) of 443 nm and an emission maximum (in OCCO) of 447 nm.
Work on `COC(=O)c1ccc(NC(=O)c2ccc(N(C)C)cc2)cc1` yielded an emission maximum (in C1CCCCC1) of 434 nm, an emission maximum (in C1CCOC1) of 470 nm and an emission maximum (in CC#N) of 516 nm. The emission maximum (in CCOCC) was 456 nm.
Molecule `CCN(CC)c1ccc2cc(-c3nc4cc(C(=O)Nc5ccc(C)cc5[N+](=O)[O-])ccc4o3)c(=O)oc2c1` has an emission maximum (in ClCCl) of 496 nm.
Molecule `Cc1ccc(N/C=C/C=[NH+]c2ccc(C)cc2)cc1` has an emission maximum (in CS(C)=O) of 491 nm.
In the case of `O=c1c2cc3ccc4cccc5ccc(c2c(=O)n1-c1ccccc1)c3c45`, the emission maximum (in ClC(Cl)Cl) was 461 nm.
`CNc1cccc2c1-c1ccccc1C2=O` gave an emission maximum (in C1CCCCC1) of 536 nm, an emission maximum (in CC#N) of 638 nm and an emission maximum (in CCO) of 686 nm. The emission maximum (in c1ccccc1) was 570 nm.
